# Experimental data as given in US9399649B2, “Compounds for treating spinal muscular atrophy” (PTC Therapeutics Inc., priority 2012, dated 2016).
# What was measured:
# [1] = tested on: Smn protein; experiment: Smn protein assay in cultured cells (SMN HTRF); type: cell-based, human; conditions: SMA patient fibroblast cells (GM03813), 48 hours; for maximum fold (Fold) increase of Smn protein: 7-point concentration data, relative to vehicle control; for EC1.5x for Smn protein expression: 7-point concentration curve, concentration producing 1.5 times Smn protein vs DMSO vehicle
# How it was run: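 SMA patient fibroblasts, 5,000 per well in DMEM-10% FBS, exposed 48 h at 37° C. to a 7-point, 3.16-fold compound series in triplicate. RIPA lysates read by SMN HTRF (665/620 nm, overnight at room temperature); ΔF over blank expressed as fold of vehicle.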
# [2] = tested on: full length SMN2 minigene mRNA containing SMN2 exon 7; experiment: SMN2 minigene mRNA splicing RT-qPCR assay in cultured cells; type: cell-based, human; conditions: Homo sapiens, HEK293-H; HEK293H cells stably transfected with SMN2-A minigene, 24 hours, 7-point concentration curve; concentration giving 1.5-fold full length SMN2 mRNA vs vehicle; read-out: EC1.5x for production of full length SMN2 mRNA
# How it was run: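 HEK293H cells stably carrying SMN2-A minigene treated 24 h (37 °C) with compound, 7-point 3.16-fold dilution, duplicates. Multiplex RT-qPCR on lysate with exon 7/luciferase primers and exon 7–8 junction probe (minigene-specific). Full-length transcript normalised to GAPDH by modified ΔΔCt, expressed relative to vehicle-treated cells.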
melting point,SMILES,maximum fold (Fold) increase of Smn protein [1],EC (1.5-fold) [2] [µM],EC1.5x for Smn protein expression [1]
236 to 238 °C,"CN1CCN(c2ccc3cc(-c4cn5ccsc5n4)oc(=O)c3c2)CC1 [Cpd 33, 3-(imidazo[2,1-b][1,3]thiazol-6-yl)-7-(4-methylpiperazin-1-yl)-1H-isochromen-1-one]",* (A maximum fold increase of ≦1.2 is indicated by one star (*)),1 to 3,
175 to 177 °C,"C[C@H]1CN(c2ccc3cc(-c4ccc5c(c4)OCCO5)oc(=O)c3c2)CCN1 [Cpd 35, 3-(2,3-dihydro-1,4-benzodioxin-6-yl)-7-[(3S)-3-methylpiperazin-1-yl]-1H-isochromen-1-one]",* (A maximum fold increase of ≦1.2 is indicated by one star (*)),0.3 to 1,
236 to 238 °C,"C[C@H]1CN(c2ccc3cc(-c4nc5ccccc5s4)oc(=O)c3c2)CCN1 [Cpd 36, 3-(1,3-benzothiazol-2-yl)-7-[(3S)-3-methylpiperazin-1-yl]-1H-isochromen-1-one]",* (A maximum fold increase of ≦1.2 is indicated by one star (*)),3 to 30,
175 to 177 °C,"C[C@@H]1CN(c2ccc3cc(-c4ccc5c(c4)OCCO5)oc(=O)c3c2)CCN1 [Cpd 37, 3-(2,3-dihydro-1,4-benzodioxin-6-yl)-7-[(3R)-3-methylpiperazin-1-yl]-1H-isochromen-1-one]",* (A maximum fold increase of ≦1.2 is indicated by one star (*)),1 to 3,
163 to 165 °C,"CN1CCN(c2ccc3cc(-c4ccc5c(c4)OCCO5)oc(=O)c3c2)CC1 [Cpd 38, 3-(2,3-dihydro-1,4-benzodioxin-6-yl)-7-(4-methylpiperazin-1-yl)-1H-isochromen-1-one]",* (A maximum fold increase of ≦1.2 is indicated by one star (*)),3 to 30,
218 to 220 °C,"C[C@@H]1CN(c2ccc3cc(-c4ccc5c(c4)OCCO5)oc(=O)c3c2)C[C@H](C)N1 [Cpd 39, 3-(2,3-dihydro-1,4-benzodioxin-6-yl)-7-[(3R,5S)-3,5-dimethylpiperazin-1-yl]-1H-isochromen-1-one]",* (A maximum fold increase of ≦1.2 is indicated by one star (*)),1 to 3,
248 to 250 °C,"C[C@H]1CN(c2ccc3cc(-c4ccc5c(c4)OCO5)oc(=O)c3c2)CCN1 [Cpd 40, 3-(1,3-benzodioxol-5-yl)-7-[(3S)-3-methylpiperazin-1-yl]-1H-isochromen-1-one]",* (A maximum fold increase of ≦1.2 is indicated by one star (*)),0.3 to 1,
220 to 222 °C,"C[C@H]1CN(c2ccc3cc(-c4ccc(O)c(O)c4)oc(=O)c3c2)CCN1 [Cpd 41, 3-(3,4-dihydroxyphenyl)-7-[(3S)-3-methylpiperazin-1-yl]-1H-isochromen-1-one]",*** (a fold increase between >1.35 and ≦1.5 is indicated by three stars (***)),0.3 to 1,
239 to 240 °C,"CCOc1ccc(-c2cc3ccc(N4CCN[C@@H](C)C4)cc3c(=O)o2)cc1 [Cpd 42, 3-(4-ethoxyphenyl)-7-[(3S)-3-methylpiperazin-1-yl]-1H-isochromen-1-one]",** (a fold increase between >1.2 and ≦1.35 is indicated by two stars (**)),0.1 to 0.3,
209 to 211 °C,"COc1ccc(-c2cc3ccc(N4CCN[C@@H](C)C4)cc3c(=O)o2)cc1F [Cpd 43, 3-(3-fluoro-4-methoxyphenyl)-7-[(3S)-3-methylpiperazin-1-yl]-1H-isochromen-1-one]",*** (a fold increase between >1.35 and ≦1.5 is indicated by three stars (***)),≤ 0.1,**** (an EC1.5×≦0.3 nM is indicated by four stars (****))
256 to 258 °C,"C[C@H]1CN(c2ccc3cc(-c4cccc(O)c4)oc(=O)c3c2)CCN1 [Cpd 44, 3-(3-hydroxyphenyl)-7-[(3S)-3-methylpiperazin-1-yl]-1H-isochromen-1-one]",** (a fold increase between >1.2 and ≦1.35 is indicated by two stars (**)),3 to 30,
167 to 168 °C,"COc1ccc(-c2cc3ccc(N4CCN[C@@H](C)C4)cc3c(=O)o2)c(F)c1 [Cpd 45, 3-(2-fluoro-4-methoxyphenyl)-7-[(3S)-3-methylpiperazin-1-yl]-1H-isochromen-1-one]",*** (a fold increase between >1.35 and ≦1.5 is indicated by three stars (***)),0.1 to 0.3,
187 to 189 °C,"COc1ccc(-c2cc3ccc(N4CCN[C@@H](C)C4)cc3c(=O)o2)cc1Cl [Cpd 46, 3-(3-chloro-4-methoxyphenyl)-7-[(3S)-3-methylpiperazin-1-yl]-1H-isochromen-1-one]",**** (a fold increase between >1.5 and ≦1.65 is indicated by four stars (****)),0.1 to 0.3,*** (an EC1.5× between >0.3 nM and ≦1 nM is indicated by three stars (***))
118 to 120 °C,"COc1cc(-c2cc3ccc(N4CCN[C@@H](C)C4)cc3c(=O)o2)ccc1F [Cpd 47, 3-(4-fluoro-3-methoxyphenyl)-7-[(3S)-3-methylpiperazin-1-yl]-1H-isochromen-1-one]",* (A maximum fold increase of ≦1.2 is indicated by one star (*)),3 to 30,
115 to 117 °C,"COc1ccc(F)cc1-c1cc2ccc(N3CCN[C@@H](C)C3)cc2c(=O)o1 [Cpd 48, 3-(5-fluoro-2-methoxyphenyl)-7-[(3S)-3-methylpiperazin-1-yl]-1H-isochromen-1-one]",* (A maximum fold increase of ≦1.2 is indicated by one star (*)),0.3 to 1,
170 to 173 °C,"COc1c(F)cc(-c2cc3ccc(N4CCN[C@@H](C)C4)cc3c(=O)o2)cc1F [Cpd 49, 3-(3,5-difluoro-4-methoxyphenyl)-7-[(3S)-3-methylpiperazin-1-yl]-1H-isochromen-1-one]",* (A maximum fold increase of ≦1.2 is indicated by one star (*)),3 to 30,
231 °C (dec.),"COc1ccc(-c2cc3ccc(N4CCN[C@@H](C)C4)cc3c(=O)o2)c(OC)c1 [Cpd 50, 3-(2,4-dimethoxyphenyl)-7-[(3S)-3-methylpiperazin-1-yl]-1H-isochromen-1-one]",*** (a fold increase between >1.35 and ≦1.5 is indicated by three stars (***)),≤ 0.1,"** (an EC1.5× between >1 μM, and ≦3 nM is indicated by two stars (**))"
245 °C (dec.),"CCOc1ccc(-c2cc3ccc(N4CCNCC4)cc3c(=O)o2)cc1 [Cpd 51, 3-(4-ethoxyphenyl)-7-(piperazin-1-yl)-1H-isochromen-1-one]",* (A maximum fold increase of ≦1.2 is indicated by one star (*)),1 to 3,
206 to 208 °C,"Cc1cc2cc(-c3cc4ccc(N5CCNCC5)cc4c(=O)o3)ccc2o1 [Cpd 52, 3-(2-methyl-1-benzofuran-5-yl)-7-(piperazin-1-yl)-1H-isochromen-1-one]",*** (a fold increase between >1.35 and ≦1.5 is indicated by three stars (***)),0.1 to 0.3,* (An EC1.5× for Smn protein expression between >3 μM and <10 μM is indicated by one star (*))
132 to 134 °C,"C[C@H]1CN(c2ccc3cc(-c4cccc(OC(F)F)c4)oc(=O)c3c2)CCN1 [Cpd 53, 3-[3-(difluoromethoxy)phenyl]-7-[(3S)-3-methylpiperazin-1-yl]-1H-isochromen-1-one]",** (a fold increase between >1.2 and ≦1.35 is indicated by two stars (**)),0.3 to 1,
121 to 123 °C,"C[C@H]1CN(c2ccc3cc(-c4ccc(OC(F)F)cc4)oc(=O)c3c2)CCN1 [Cpd 54, 3-[4-(difluoromethoxy)phenyl]-7-[(3S)-3-methylpiperazin-1-yl]-1H-isochromen-1-one]",* (A maximum fold increase of ≦1.2 is indicated by one star (*)),0.3 to 1,
340 to 342 °C,"C[C@H]1CN(c2ccc3cc(-c4cn5ccsc5n4)oc(=O)c3c2)CCN1 [Cpd 55, 3-(imidazo[2,1-b][1,3]thiazol-6-yl)-7-[(3S)-3-methylpiperazin-1-yl]-1H-isochromen-1-one]",** (a fold increase between >1.2 and ≦1.35 is indicated by two stars (**)),0.1 to 0.3,

SMILES,melting point,maximum fold (Fold) increase of Smn protein [1],EC (1.5-fold) [2] [µM],EC1.5x for Smn protein expression [1]
"C[C@H]1CN(c2ccc3cc(-c4ccccn4)oc(=O)c3c2)CCN1 [Cpd 34, 7-[(3S)-3-methylpiperazin-1-yl]-3-(pyridin-2-yl)-1H-isochromen-1-one]",343 to 345 °C,*** (a fold increase between >1.35 and ≦1.5 is indicated by three stars (***)),0.3 to 1,* (An EC1.5× for Smn protein expression between >3 μM and <10 μM is indicated by one star (*))
